Source: patent publication US20060069132A1, “Azolecarboxamide herbicides” (priority 2004, published 2006)

Assays:
[1] = tested on: small flower umbrella sedge; assay: Test B flooded paddy test; type: in vivo, Cyperus difformis; settings: 1000 g ai/ha, scale 0 to 100 (0 no effect, 100 complete control)
In short: (§1)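 Formulated test chemicals went onto postemergence plants measuring 2 to 18 cm, at one to four leaves. For the paddy assay, species had reached two leaves. Scoring took place 13–15 days later by eye, relative to untreated plants, using 0 for no effect up to 100 for full control.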

barnyardgrass [2] = assay: Test B flooded paddy test; type: in vivo, Echinochloa crus-galli; settings: 1000 g ai/ha, scale 0 to 100 (0 no effect, 100 complete control)
In short: as §1

cocklebur = assay: Test B pre-/postemergence herbicide test; type: in vivo, Xanthium strumarium; settings: for Cocklebur plant response rating: postemergence, scale 0 (no effect) to 100 (complete control)
In short: (§2)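 Plants compared with untreated controls 13–15 days post-treatment and given a visual 0–100 injury score. Applications: preemergence to seeds; postemergence at 1- to 4-leaf (2–18 cm); paddy species flooded, 2-leaf stage. Vehicle non-phytotoxic, surfactant included.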

lambsquarters = assay: Test B pre-/postemergence herbicide test; type: in vivo, Chenopodium album; settings: for Lambsquarters plant response rating: postemergence
In short: (§3)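 Test chemicals in a non-phytotoxic solvent mixture with surfactant were applied preemergence to seeded species and postemergence to plants 2-18 cm tall (1- to 4-leaf stage); rice and barnyardgrass were also tested in a flooded paddy at the 2-leaf stage. Visual rating versus controls after 13-15 days in greenhouse, scale 0 (no effect) to 100 (complete control).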

ducksalad [3] = assay: Test C flooded paddy test; type: in vivo, Heteranthera limosa
large crabgrass = assay: Test B pre-/postemergence herbicide test; type: in vivo, Digitaria sanguinalis; settings: for Crabgrass, Large plant response rating: postemergence
In short: as §3

[4] = tested on: smallflower umbrella sedge; assay: Test C flooded paddy test; type: in vivo, Cyperus difformis
wheat = assay: Test B postemergence herbicide test; type: in vivo, Triticum aestivum; parameters: key to Wheat plant response rating: 0 = no effect, 100 = complete control; settings: postemergence
In short: as §1

rice [5] = assay: Test B pre-/postemergence herbicide test; type: in vivo, Oryza sativa; settings: 0 = no effect, 100 = complete control, preemergence
In short: as §3

velvetleaf = assay: Test B pre-/postemergence herbicide test; type: in vivo, Abutilon theophrasti; settings: for Velvetleaf plant response rating: postemergence
In short: as §3

pigweed = assay: Test B pre-/postemergence herbicide test; type: in vivo, Amaranthus retroflexus; settings: for Pigweed plant response rating: postemergence
In short: as §3

barnyardgrass [6] = assay: Test C flooded paddy test; type: in vivo, Echinochloa crus-galli
In short: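 Greenhouse test with a 12–14 day hold after application and visual comparison with controls. Emerged plants were 1- to 4-leaf stage (2–18 cm) when sprayed postemergence, and the paddy barnyardgrass was at 2 leaves under flooded conditions. 100 = complete control.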

giant foxtail = assay: Test B pre-/postemergence herbicide test; type: in vivo, Setaria faberi; settings: for Foxtail, Giant plant response rating: postemergence
In short: as §3

rice [7] = assay: Test B flooded paddy test; type: in vivo, Oryza sativa; settings: 1000 g ai/ha, scale 0 to 100 (0 no effect, 100 complete control)
In short: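 Paddy species grown to the 2-leaf stage under flooding; blackgrass sprayed postemergence at 2–18 cm (1- to 4-leaf stage). Plants kept in a greenhouse for 13 to 15 days, then visually rated against controls on 0 (no effect) to 100 (complete control).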

Surinam grass = assay: Test B pre-/postemergence herbicide test; type: in vivo, Urochloa decumbens; settings: for Surinam Grass plant response rating: postemergence
In short: as §3

ducksalad [8] = assay: Test B flooded paddy test; type: in vivo, Heteranthera limosa; settings: 1000 g ai/ha, scale 0 to 100 (0 no effect, 100 complete control)
In short: as §1

morningglory = assay: Test B pre-/postemergence herbicide test; type: in vivo, Ipomoea coccinea; settings: for Morningglory plant response rating: postemergence
In short: as §2

wild oat = assay: Test B postemergence herbicide test; type: in vivo, Avena fatua; settings: postemergence
In short: as §1

corn = assay: Test B pre-/postemergence herbicide test; type: in vivo, Zea mays; settings: for Corn plant response rating: postemergence
In short: as §3

blackgrass = assay: Test B postemergence herbicide test; type: in vivo, Alopecurus myosuroides; settings: postemergence, visual rating, scale 0 (no effect) to 100 (complete control)
In short: as §1

rice [9] = assay: Test C flooded paddy test; type: in vivo, Oryza sativa
In short: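 Injury scored visually against controls on a 0 (no effect) to 100 (complete control) scale, 12 to 14 days after treatment in greenhouse. Flooded paddy plants treated at 2-leaf stage; postemergence plants at 1- to 4-leaf stage, 2 to 18 cm tall.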

barnyardgrass [10] = assay: Test B pre-/postemergence herbicide test; type: in vivo, Echinochloa crus-galli; settings: for Barnyardgrass plant response rating: postemergence, scale 0 (no effect) to 100 (complete control)
In short: as §2

[11] = 125 g ai/ha, 0 = no effect, 100 = complete control, preemergence
[12] = 500 g ai/ha, visual rating, 0 = no effect, 100 = complete control, preemergence
[13] = 125 g ai/ha, visual rating, scale 0 (no effect) to 100 (complete control)
[14] = 500 g ai/ha, scale 0 to 100, 0 is no effect, 100 is complete control
[15] = 125 g ai/ha, scale 0 to 100 (0 no effect, 100 complete control)
[16] = 250 g ai/ha, scale of 0 to 100, 0 is no effect, 100 is complete control
[17] = 500 g ai/ha, visual rating after 12 to 14 days, scale 0 to 100 (0 no effect, 100 complete control)

Compound: CCNC(=O)c1cc(NC(=O)c2cc(C(C)(C)C)nn2CC)c(F)cc1F [Compound 252]
- Sedge, Umbrella plant response rating [1]: 80
- Barnyardgrass plant response rating (barnyardgrass [2]): 70
- Cocklebur plant response rating (0 to 100 scale) (cocklebur; [11]): 0
- Plant response rating, Cocklebur (cocklebur; [12]): 0
- Cocklebur plant response rating (cocklebur; 125 g ai/ha, visual rating): 20
- Cocklebur plant response rating (cocklebur; 500 g ai/ha, visual rating): 40
- Plant response rating, Lambsquarters (lambsquarters; [12]): 100
- Lambsquarters plant response rating (lambsquarters; [13]): 30
- Lambsquarters plant response rating (lambsquarters; [14]): 30
- Ducksalad plant response rating (ducksalad [3]; 62 g ai/ha, scale 0 to 100): 0
- Ducksalad plant response rating (ducksalad [3]; [15]): 0
- Ducksalad plant response rating (ducksalad [3]; [16]): 15
- Plant response rating, Ducksalad (ducksalad [3]; [17]): 80
- Crabgrass, Large plant response rating (0 to 100 scale) (large crabgrass; [11]): 80
- Plant response rating, Crabgrass, Large (large crabgrass; [12]): 100
- Crabgrass, Large plant response rating (large crabgrass; [13]): 0
- Crabgrass, Large plant response rating (large crabgrass; [14]): 10
- Sedge, Umbrella plant response rating ([4]; 62 g ai/ha, scale 0 to 100): 0
- Sedge, Umbrella plant response rating [4, 15]: 40
- Sedge, Umbrella plant response rating [4, 16]: 50
- Plant response rating, Sedge, Umbrella [4, 17]: 75
- Wheat plant response rating (wheat; [13]): 20
- Wheat plant response rating (wheat; [14]): 20
- Rice plant response rating (0 to 100 scale) (rice [5]; 125 g ai/ha): 30
- Plant response rating, Rice (rice [5]; 500 g ai/ha, visual rating): 50
- Velvetleaf plant response rating (0 to 100 scale) (velvetleaf; [11]): 0
- Plant response rating, Velvetleaf (velvetleaf; [12]): 60
- Velvetleaf plant response rating (velvetleaf; [13]): 30
- Velvetleaf plant response rating (velvetleaf; [14]): 30
- Plant response rating, Pigweed (pigweed; [12]): 100
- Pigweed plant response rating (pigweed; [13]): 20
- Pigweed plant response rating (pigweed; [14]): 30
- Barnyardgrass plant response rating (barnyardgrass [6]; 62 g ai/ha, scale 0 to 100 (0 no effect, 100 complete control)): 0
- Barnyardgrass plant response rating (barnyardgrass [6]; [15]): 0
- Barnyardgrass plant response rating (barnyardgrass [6]; [16]): 15
- Plant response rating, Barnyardgrass (barnyardgrass [6]; [17]): 45
- Foxtail, Giant plant response rating (0 to 100 scale) (giant foxtail; [11]): 10
- Plant response rating, Foxtail, Giant (giant foxtail; [12]): 90
- Foxtail, Giant plant response rating (giant foxtail; [13]): 20
- Foxtail, Giant plant response rating (giant foxtail; [14]): 30
- Rice plant response rating (rice [7]): 80
- Surinam Grass plant response rating (0 to 100 scale) (Surinam grass; [11]): 10
- Plant response rating, Surinam Grass (Surinam grass; [12]): 70
- Surinam Grass plant response rating (Surinam grass; [13]): 10
- Surinam Grass plant response rating (Surinam grass; [14]): 20
- Ducksalad plant response rating (ducksalad [8]): 90
- Morningglory plant response rating (0 to 100 scale) (morningglory; [11]): 0
- Plant response rating, Morningglory (morningglory; [12]): 0
- Morningglory plant response rating (morningglory; [13]): 20
- Morningglory plant response rating (morningglory; [14]): 20
- Oat, Wild plant response rating (wild oat; [13]): 20
- Oat, Wild plant response rating (wild oat; [14]): 20
- Corn plant response rating (0 to 100 scale) (corn; [11]): 0
- Plant response rating, Corn (corn; [12]): 60
- Corn plant response rating (corn; [13]): 10
- Corn plant response rating (corn; [14]): 10
- Blackgrass plant response rating (blackgrass; 125 g ai/ha): 10
- Blackgrass plant response rating (blackgrass; 500 g ai/ha): 20
- Rice plant response rating (rice [9]; 62 g ai/ha, scale 0 to 100): 0
- Rice plant response rating (rice [9]; [15]): 45
- Rice plant response rating (rice [9]; [16]): 55
- Plant response rating, Rice (rice [9]; [17]): 60
- Barnyardgrass plant response rating (0 to 100 scale) (barnyardgrass [10]; [11]): 0
- Plant response rating, Barnyardgrass (barnyardgrass [10]; [12]): 70
- Barnyardgrass plant response rating (barnyardgrass [10]; 125 g ai/ha, visual rating): 0
- Barnyardgrass plant response rating (barnyardgrass [10]; 500 g ai/ha, visual rating): 10
